Results on 1 compound are retold here after patent US10420733B2, “Transdermal delivery system containing methylphenidate or its salts and methods thereof” (TAHO Pharmaceuticals Ltd., priority 2016, dated 2019).

Each structure is given as a SMILES string.

This data set in a line: Maximum amount of methylphenidate dissolved in various adhesives. Format: physicochemical. The procedure:
Various adhesives were tested to determine the maximum amount of methylphenidate could be dissolved.

`COC(=O)C(c1ccccc1)C1CCCCN1` (stereo not shown) [methylphenidate, a-phenyl-2-piperidineacetic acid methyl ester]: the “solubility in Duro Tak 87-6911” value was “highly soluble”.
